The subject of assay [1] is human non-small cell lung carcinoma H-460. Put plainly: Analysis of cell cycle distribution and flow cytometry (sub G1 apoptosis). Type of assay: cell-based. Here is the method: The human non-small cell lung carcinoma H-460 was seeded in 25 mm^3 tissue culture flasks. […] The control cells were left untreated for 96 hours or 120 hours. Both detached and adherent cells were harvested at different time points. The cells were washed twice with approximately 5 mL of PBS with centrifugation at 1000 rpm for 10 minutes. The cells were re-suspended in 500 μL of PBS and fixed in 500 μL ice-cold 70% ethanol. The fixed cells were incubated at room temperature for 30 minutes, spun at 1000 rpm for 10 minutes. To the cell pellet 1 mL of chilled 70% ethanol was added and the cell pellet was then kept in fridge till further analysis. Cells were washed twice with PBS to remove fixative and re-suspended in 250 μL PBS. To this 50 μL of propidium iodide (4 mg/mL in PBS) and 12.5 μL Rnase A (1 mg/mL) was added. After incubation at 37° C. for 30 minutes, cells were analyzed using flow cytometry.
A Becton Dickinson FACS Calibur flow cytometer was used in accordance with the manufacturer's recommendations. The argon ion laser set at 488 nm was used as an excitation source. Cells with DNA content between 2n and 4n were designated as being in G1, S and G2/M phases of the cell cycle, as defined by the level of red fluorescence. […] The number of cells in each cell cycle compartment was expressed as a percentage of the total number of cells present
About 1-2×10^6 cells were seeded in a tissue culture flask for the treatment groups. The assay protocol was as mentioned above in “analysis of cell cycle distribution and flow cytometry”. The cell cycle was divided in four parts, which are represented in the FIG. 1 as M1, M2, M3 and M4. M1 corresponds to the G1 phase, M2 to the S phase, M3 to the G2-M phase and M4 to the sub G1 phase, which represents the cells undergoing apoptosis.
About 1-2×10^6 cells were seeded in a tissue culture flask for the treatment groups. The assay protocol was as mentioned above in “analysis of cell cycle distribution and flow cytometry”. The cell cycle was divided in four parts, which are represented in the figure as M1, M2, M3 and M4. M1 corresponds to the G1 phase, M2 to the S phase, M3 to the G2-M phase and M4 to the sub G1 phase, which represents the cells undergoing apoptosis.
(In general: Flow cytometry measures light scatter and fluorescence of single cells or particles in a stream.)

For assay [2] the test system is unchanged. In words: Annexin V-FITC staining (detection of early apoptosis). The settings on record: doxorubicin 100 nM 24 hours; compound A 1200 nM 96 hours; combination doxorubicin 24 hours followed by compound A 96 hours. The class given is cell-based. On the procedure:
Annexin V-FITC is a sensitive probe for identifying apoptotic cells. During early apoptosis the membrane phospholipid phosphotidyl serine (PS) is translocated from the inner to the outer leaflet of the plasma membrane, thereby exposing PS to the external cellular environment. Annexin V is a 35-36 kDa Calcium phospholipid binding protein that has a high affinity for PS and binds to cells with exposed PS. […] The human non-small cell lung carcinoma H-460 was seeded in 25 mm^3 tissue culture flasks. […] The control cells were left untreated for 120 hours. Medium containing floating cells were collected and pooled with the adherent cells after harvesting with trypsin at the different time points. The cells were washed twice with cold PBS with centrifugation at 1000 rpm for 10 minutes. The cell pellet was resuspended in 1× binding buffer (10 mm HEPES pH 7.4, 140 mM NaCl, 2.5 mM CaCl2) at a concentration of 1×10^6 cells/mL. 100 μl of the solution (1×10^5 cells) were stained with Annexin V-FITC and Propidium Iodide. The cells were incubated for 15 minutes at room temperature in the dark and the sample was analysed by flow cytometry. A Becton Dickinson FACS Calibur flow cytometer was used for these studies in accordance with the manufacturer's recommendations. The argon ion laser set at 488 nm was used as an excitation source. […] If the cells even after the termination of compound exposure continue to go into apoptosis, they would stain positive for annexin. The cells once in early apoptosis are committed to programmed cell death and at a point of no return.

For assay [3], the system named is Cdk1. Put plainly: Western blot analysis. Type of assay: cell-based, human. The settings on record: H-460; doxorubicin 100 nM 24 hours; compound A 1200 nM 96 hours; combination sequential; FIG. 6. On the procedure: (§1) At the end of the treatment period cells were lysed and protein content of the lysate was estimated using the Bradford reagent. 40 μg of protein was loaded on SDS-PAGE and transferred on PVDF membrane. The membranes were probed with p53, Bax, Bcl-2, cyclin D1, Cdk1 and actin antibodies. The primary antibody were detected with horseradish […] secondary antibody and subjected to west pico chemiluminescence reagents.
(§2) Equal amount of protein was loaded in the four lanes. The different samples loaded in the wells are described in the figure legend. […] This correlates with the increased apoptosis seen in the combination treatment in FACS analysis. The pro-apoptotic protein Bax is slightly up regulated with respect to control in all treatment samples. […] Cdk1-B1 is an initiator of mitosis. The deregulation of this enzyme leads to tumorigenesis.
Background: A western blot detects proteins with antibodies after separation by electrophoresis.

Assay [4] has as its system cyclin D1. Put plainly: Western blot analysis. The class given is cell-based, human. To be noted: H-460; doxorubicin 100 nM 24 hours; compound A 1200 nM 96 hours; combination sequential; FIG. 6. Here is the method:
as §1, §2

For assay [5], the system named is COX-2. Put plainly: Western blot analysis using COX-2 antibody. The class given is in vivo, human. To be noted: H-460 tumor xenograft; FIG. 9. From the text:
FIG. 9 indicates western blot analysis using COX-2 antibody.
Therefore, NFκB mediated inhibition of COX-2 by the compound A could be involved in suppressing tumor growth and doxorubicin induced chemoresistance in human non-small cell lung carcinoma (H-460) tumor xenograft.

Setting [6] is: FIG. 1: 200 nM doxorubicin alone (24 hours), 800 nM compound A alone (72 hours), combination 200 nM doxorubicin (24 hours) followed by 800 nM compound A (72 hours).
Setting [7] is: FIG. 2: 100 nM doxorubicin alone (24 hours), 1200 nM compound A alone (96 hours), combination 100 nM doxorubicin (24 hours) followed by 1200 nM compound A (96 hours).

As for `CN1CC[C@@H](c2c(O)cc(O)c3c(=O)cc(-c4ccccc4Cl)oc23)[C@@H]1CO.Cl` [Compound A, (+)-trans-2-(2-Chloro-phenyl)-5,7-dihydroxy-8-(2-hydroxymethyl-1-methyl-pyrrolidin-3-yl)-chromen-4-one hydrochloride], the “apoptosis (sub G1 phase)” value in assay [1] (setting [6]) came out at 10%. In addition, the “apoptosis (sub G1 phase)” value in assay [1] (setting [7]) amounted to 32%. Also, in assay [2], the “Annexin + ve (%) (cells in early apoptosis)” value was 38.5%; the “Annexin and PI + ve (%) (cells in early to late apoptosis)” value was found to be 8.2%; the “Live cells (%) (healthy cells)” value was found to be 53%; the “PI + ve (%) (dead cells)” value is on record as 0.3%. Moreover, the “Cdk1 levels (western blot)” value in assay [3] is “levels equal to control”. In addition, the “Cyclin D1 levels (western blot)” value in assay [4] was “slight reduction”. In addition, the “COX-2 levels (western blot)” value in assay [5] is “low levels of COX-2”.
`COc1cccc2c1C(=O)c1c(O)c3c(c(O)c1C2=O)C[C@@](O)(C(=O)CO)C[C@@H]3O[C@H]1C[C@H](N)[C@H](O)[C@H](C)O1` [Doxorubicin]: in assay [1] (setting [6]), the “apoptosis (sub G1 phase)” value is on record as 10%. Besides, the “apoptosis (sub G1 phase)” value in assay [1] (setting [7]) is reported as 3%. In addition, in assay [2], the “Annexin + ve (%) (cells in early apoptosis)” value was 30.4%; the “Annexin and PI + ve (%) (cells in early to late apoptosis)” value was found to be 8.6%; the “Live cells (%) (healthy cells)” value came to 60%; the “PI + ve (%) (dead cells)” value came out at 1%. Moreover, the “Cdk1 levels (western blot)” value in assay [3] is on record as “significantly induces Cdk1 levels”. In addition, in assay [4], the “Cyclin D1 levels (western blot)” value is listed as “slight reduction”. Moreover, the “COX-2 levels (western blot)” value in assay [5] was “strongly induced COX-2”.

Values taken from patent US8822526B2, “Synergistic pharmaceutical combination for the treatment of cancer” (Piramal Enterprises Limited, priority 2007, dated 2014).
